Columns and labels:
[1] = Inhibition of rat liver microsome ACAT; assay type: microsomes
[2] = tested on: WI-38; experiment: Induction of senescence in human WI-38 cells; assay type: functional, cell-based

Structure (SMILES)	IC50 [1]	IC50 [2]
O=C(/C=C/C=C/CC/C=C/c1ccc2c(c1)OCO2)N1CCCCC1 [DEHYDROPIPERNOLINE]	90 µM	2.1 µM
CC(C)CNC(=O)/C=C/C=C/CCCCCC/C=C/c1ccc2c(c1)OCO2 [GUINEENSINE]	3 µM	8.9 µM
CCCCC/C=C/C=C/C(=O)NCC(C)C [PELLITORIN]		0.67 µM
O=C(/C=C/C=C/c1ccc2c(c1)OCO2)N1CCCCC1 [PIPERINE]		8.8 µM
COc1cc(/C=C/C(=O)N2CCC=CC2=O)cc(OC)c1OC [PIPLARTINE]		8 µM
CC(C)CNC(=O)/C=C/C=C/CCCC/C=C/c1ccc2c(c1)OCO2 [RETROFRACTAMIDE B]		2 µM

From ChEMBL document CHEMBL5344448, “Amide Alkaloids as Privileged Sources of Senomodulators for Therapeutic Purposes in Age-Related Diseases” (J Nat Prod, 2024)
